These results are taken from US8722849B2, “Polypeptides” (Novo Nordisk A/S, priority 2011, dated 2014).

Values after ≈ are worked out from the molar mass of the structure shown. Read-outs that look alike come from different tables or passages of the source. Starred links: 1 amine or outer side, 2 acyl side, 3 side chain; linkers in the order of their positions; H or OH if unused. Positions of bridges follow the written chain, without caps; N, C: chain ends. Residues, ends and D or L forms follow the SMILES beside them. Groups on a side chain read outwards from the residue. *: point of attachment. C20 diacid = O=C(O)CCCCCCCCCCCCCCCCCCC(=O)*; γGlu = O=C(O)[C@H](CCC(=O)[*:2])N[*:1]; AEEA = NCCOCCOCC(=O)O

The nature of the data set: Assay (IV) determination of solubility. Type of data set: physicochemical. The method in brief:
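Solubility is measured across pH 3.0–8.0 by mixing a ~500 nmol/ml aqueous polypeptide stock 1:1 with 100 mM glycylglycine or bistrispropane buffers. Samples stand 18 hours at room temperature, then are centrifuged and the soluble concentration is determined by HPLC.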

Setting [1] is: pH 3, pH 3.0, read-out: Solubility pH 3.0.
[2] abbreviates: pH 4, pH 4.0, 18 hours at room temperature, Table 2, read-out: Solubility pH 4.0.
Where [3] appears, read: pH 4, pH 4.0, read-out: Solubility pH 4.0.
Where [4] appears, read: pH 5, pH 5.0, read-out: Solubility pH 5.0.
Setting [5] is: pH 6, pH 6.0, read-out: Solubility pH 6.0.
The mark [6] stands for this setting: pH 6.5, pH 6.5, read-out: Solubility pH 6.5.
The mark [7] stands for this setting: pH 7, pH 7.0, read-out: Solubility pH 7.0.
The mark [8] stands for this setting: pH 7.5, pH 7.5, read-out: Solubility pH 7.5.
[9] abbreviates: pH 8, pH 8.0, read-out: Solubility pH 8.0.

Consider `CC(C)C[C@H](NC(=O)[C@H](CCCNC(=N)N)NC(=O)[C@H](CCC(N)=O)NC(=O)[C@@H](NC(=O)[C@H](C)NC(=O)[C@@H]1CSSC[C@H](NC(=O)[C@H](CCCCN)NC(=O)CC[C@H](NC(=O)CCCCCCCCCCCCCCCCCCC(=O)O)C(=O)O)C(=O)N[C@@H](CC(N)=O)C(=O)N[C@@H]([C@@H](C)O)C(=O)N[C@@H](C)C(=O)N[C@@H]([C@@H](C)O)C(=O)N1)[C@@H](C)O)C(=O)N[C@@H](C)C(=O)N[C@@H](CCC(=O)O)C(=O)N[C@@H](Cc1ccccc1)C(=O)N[C@@H](CC(C)C)C(=O)N[C@H](C(=O)N[C@@H](Cc1c[nH]cn1)C(=O)N[C@@H](CO)C(=O)N[C@@H](CO)C(=O)N[C@@H](CO)C(=O)N[C@@H](CO)C(=O)N1CCC[C@H]1C(=O)NCC(=O)N[C@@H](C)C(=O)N1CCC[C@H]1C(=O)N[C@@H](CC(C)C)C(=O)N[C@@H](CO)C(=O)N[C@@H](CO)C(=O)N[C@H](C(=O)N[C@@H](CC(=O)O)C(=O)N[C@H](C(=O)NCC(=O)N[C@@H](CO)C(=O)N[C@@H](CC(=O)O)C(=O)N[C@H](C(=O)N1CCC[C@H]1C(N)=O)[C@@H](C)O)C(C)C)[C@@H](C)O)C(C)C` [Example 171, N-alpha-[(S)-4-Carboxy-4-(19-carboxynonadecanoylamino)butyryl]-[Glu14,Ser21,Ser22,Pro23,Ala25,Pro26,Ser28,Ser29,Asp31,Asp35,Pro37]-pramlintide] ({C20 diacid-γGlu}-KCNTATCATQRLAEFLVHSSSSPGAPLSSTDVGSDTP-NH2; disulfide 2-7), for which the solubility under setting [1] was above 200 µM; the solubility under setting [2] was above 200 µM; the solubility under setting [3] was above 200 µM; the solubility under setting [4] was above 200 µM; the solubility under setting [5] is above 200 µM; the solubility under setting [6] was above 200 µM. Also, the solubility is above 200 µM (pH 7, pH 7.0, 18 hours at room temperature, Table 3, read-out: Solubility pH 7.0); above 200 µM under setting [7]; above 200 µM under setting [8]; above 200 µM under setting [9].

For the compound `CC[C@H](C)[C@H](NC(=O)[C@@H]1CCCN1C(=O)CNC(=O)[C@H](Cc1ccccc1)NC(=O)[C@H](CC(N)=O)NC(=O)[C@H](CCCCNC(=O)COCCOCCNC(=O)COCCOCCNC(=O)CC[C@H](NC(=O)CCCCCCCCCCCCCCCCCCC(=O)O)C(=O)O)NC(=O)[C@H](CO)NC(=O)[C@H](CO)NC(=O)[C@H](Cc1c[nH]cn1)NC(=O)[C@H](Cc1c[nH]cn1)NC(=O)[C@H](CC(C)C)NC(=O)[C@H](Cc1ccccc1)NC(=O)[C@H](CCC(=O)O)NC(=O)[C@H](C)NC(=O)[C@H](CC(C)C)NC(=O)[C@H](CCCNC(=N)N)NC(=O)[C@H](CCC(N)=O)NC(=O)[C@@H](NC(=O)[C@H](C)NC(=O)[C@@H]1CSSC[C@H](NC(=O)[C@@H](N)CCCCN)C(=O)N[C@@H](CC(N)=O)C(=O)N[C@@H]([C@@H](C)O)C(=O)N[C@@H](C)C(=O)N[C@@H]([C@@H](C)O)C(=O)N1)[C@@H](C)O)C(=O)N[C@@H](CC(C)C)C(=O)N[C@@H](CO)C(=O)N1CCC[C@H]1C(=O)N[C@H](C(=O)N[C@@H](CC(N)=O)C(=O)N[C@H](C(=O)NCC(=O)N[C@@H](CO)C(=O)N[C@@H](Cc1c[nH]cn1)C(=O)N[C@H](C(=O)N[C@@H](Cc1ccc(O)cc1)C(N)=O)[C@@H](C)O)C(C)C)[C@@H](C)O` [Example 144, N-epsilon21-[2-(2-{2-[2-(2-{2-[(S)-4-Carboxy-4-(19-carboxyheptadecanoylamino)butyrylamino]ethoxy}ethoxy)acetylamino]ethoxy}ethoxy)acetyl]-[Glu14,His17,Lys21,Ser28,His35]-pramlintide] (H-KCNTATCATQRLAEFLHHSSK([AEEA-AEEA-γGlu-C20 diacid])NFGPILSPTNVGSHTY-NH2; disulfide 2-7), the solubility under setting [1] was above 200 µM; the solubility under setting [2] was above 200 µM; the solubility under setting [3] is above 200 µM; the solubility under setting [4] was above 200 µM; the solubility under setting [5] amounted to 47 µM (≈ 224 µg/mL); the solubility under setting [6] worked out at 2 µM (≈ 9.55 µg/mL). The solubility reads like this: under setting [7], 1 µM (≈ 4.77 µg/mL); under setting [8], 1 µM (≈ 4.77 µg/mL).

For the compound `CC[C@H](C)[C@H](NC(=O)[C@@H]1CCCN1C(=O)CNC(=O)[C@H](Cc1ccccc1)NC(=O)[C@H](CC(N)=O)NC(=O)[C@H](CCCCNC(=O)COCCOCCNC(=O)COCCOCCNC(=O)CC[C@H](NC(=O)CCCCCCCCCCCCCCCCCCC(=O)O)C(=O)O)NC(=O)[C@H](CO)NC(=O)[C@H](CO)NC(=O)[C@H](CCCNC(=N)N)NC(=O)[C@H](Cc1c[nH]cn1)NC(=O)[C@H](CC(C)C)NC(=O)[C@H](Cc1ccccc1)NC(=O)[C@H](CCC(=O)O)NC(=O)[C@H](C)NC(=O)[C@H](CC(C)C)NC(=O)[C@H](CCCNC(=N)N)NC(=O)[C@H](CCC(N)=O)NC(=O)[C@@H](NC(=O)[C@H](C)NC(=O)[C@@H]1CSSC[C@H](NC(=O)[C@@H](N)CCCNC(=N)N)C(=O)N[C@@H](CC(N)=O)C(=O)N[C@@H]([C@@H](C)O)C(=O)N[C@@H](C)C(=O)N[C@@H]([C@@H](C)O)C(=O)N1)[C@@H](C)O)C(=O)N[C@@H](CC(C)C)C(=O)N1CCC[C@H]1C(=O)N1CCC[C@H]1C(=O)N[C@H](C(=O)N[C@@H](CC(N)=O)C(=O)N[C@H](C(=O)NCC(=O)N[C@@H](CO)C(=O)N[C@@H](CC(N)=O)C(=O)N[C@H](C(=O)N[C@@H](Cc1ccc(O)cc1)C(N)=O)[C@@H](C)O)C(C)C)[C@@H](C)O` [Example 14, N-epsilon21-[2-(2-{2-[2-(2-{2-[(S)-4-Carboxy-4-(19-carboxyheptadecanoylamino)butyrylamino]ethoxy}ethoxy)acetylamino]ethoxy}ethoxy)acetyl]-[Arg1,Glu14,His17,Arg18,Lys21]-pramlintide] (H-RCNTATCATQRLAEFLHRSSK([AEEA-AEEA-γGlu-C20 diacid])NFGPILPPTNVGSNTY-NH2; disulfide 2-7), the solubility was above 200 µM under setting [1]; above 200 µM under setting [2]; above 200 µM under setting [3]; above 200 µM under setting [4]; 192 µM (≈ 923 µg/mL) under setting [5]; 102 µM (≈ 490 µg/mL) under setting [6]. For the same compound, the solubility runs as follows: under setting [7], 13 µM (≈ 62.5 µg/mL); under setting [8], 7 µM (≈ 33.7 µg/mL); under setting [9], 47 µM (≈ 226 µg/mL).

With `CC[C@H](C)[C@H](NC(=O)[C@H](CCCCNC(=O)COCCOCCNC(=O)COCCOCCNC(=O)CC[C@H](NC(=O)CCCCCCCCCCCCCCCCCCC(=O)O)C(=O)O)NC(=O)CNC(=O)[C@H](Cc1ccccc1)NC(=O)[C@H](CC(N)=O)NC(=O)[C@H](Cc1c[nH]cn1)NC(=O)[C@H](CO)NC(=O)[C@H](CO)NC(=O)[C@H](Cc1c[nH]cn1)NC(=O)[C@H](Cc1c[nH]cn1)NC(=O)[C@H](CC(C)C)NC(=O)[C@H](Cc1ccccc1)NC(=O)[C@H](CC(N)=O)NC(=O)[C@H](C)NC(=O)[C@H](CC(C)C)NC(=O)[C@H](CCCNC(=N)N)NC(=O)[C@H](CCC(N)=O)NC(=O)[C@@H](NC(=O)[C@H](C)NC(=O)[C@@H]1CSSC[C@H](NC(=O)[C@@H](N)CCCCN)C(=O)N[C@@H](CC(N)=O)C(=O)N[C@@H]([C@@H](C)O)C(=O)N[C@@H](C)C(=O)N[C@@H]([C@@H](C)O)C(=O)N1)[C@@H](C)O)C(=O)N[C@@H](CC(C)C)C(=O)N[C@@H](CO)C(=O)N[C@@H](CO)C(=O)N[C@H](C(=O)N[C@@H](CC(N)=O)C(=O)N[C@H](C(=O)NCC(=O)N[C@@H](CO)C(=O)N[C@@H](Cc1c[nH]cn1)C(=O)N[C@H](C(=O)N[C@@H](Cc1ccc(O)cc1)C(N)=O)[C@@H](C)O)C(C)C)[C@@H](C)O` [Example 134, N-epsilon25-[2-(2-{2-[2-(2-{2-[(S)-4-Carboxy-4-(19-carboxyheptadecanoylamino)butyrylamino]ethoxy}ethoxy)acetylamino]ethoxy}ethoxy)acetyl]-[His17,His21,Lys25,Ser28,Ser29.His35]-pramlintide] (H-KCNTATCATQRLANFLHHSSHNFGK([AEEA-AEEA-γGlu-C20 diacid])ILSSTNVGSHTY-NH2; disulfide 2-7), the solubility was above 200 µM under setting [1]; above 200 µM under setting [3]; above 200 µM under setting [4]; 3 µM (≈ 14.4 µg/mL) under setting [5]; 1 µM (≈ 4.79 µg/mL) under setting [6]; 2 µM (≈ 9.58 µg/mL) under setting [7]. In addition, the solubility is, setting by setting: under setting [8], 3 µM (≈ 14.4 µg/mL); under setting [9], 2 µM (≈ 9.58 µg/mL).

Regarding `CC[C@H](C)[C@H](NC(=O)[C@@H]1CCCN1C(=O)CNC(=O)[C@H](Cc1ccccc1)NC(=O)[C@H](CC(N)=O)NC(=O)[C@H](CCCCNC(=O)COCCOCCNC(=O)COCCOCCNC(=O)CC[C@H](NC(=O)CCCCCCCCCCCCCCCCCCC(=O)O)C(=O)O)NC(=O)[C@H](CO)NC(=O)[C@H](CO)NC(=O)[C@H](Cc1c[nH]cn1)NC(=O)[C@@H](NC(=O)[C@H](CC(C)C)NC(=O)[C@H](Cc1ccccc1)NC(=O)[C@H](CCC(=O)O)NC(=O)[C@H](C)NC(=O)[C@H](CC(C)C)NC(=O)[C@H](CCCNC(=N)N)NC(=O)[C@H](CCC(N)=O)NC(=O)[C@@H](NC(=O)[C@H](C)NC(=O)[C@@H]1CSSC[C@H](NC(=O)[C@@H](N)CCCCN)C(=O)N[C@@H](CC(N)=O)C(=O)N[C@@H]([C@@H](C)O)C(=O)N[C@@H](C)C(=O)N[C@@H]([C@@H](C)O)C(=O)N1)[C@@H](C)O)C(C)C)C(=O)N[C@@H](CC(C)C)C(=O)N[C@@H](CO)C(=O)N[C@@H](CCCNC(=N)N)C(=O)N[C@H](C(=O)N[C@@H](CC(N)=O)C(=O)N[C@H](C(=O)NCC(=O)N[C@@H](CO)C(=O)N[C@@H](Cc1c[nH]cn1)C(=O)N[C@H](C(=O)N[C@@H](Cc1ccc(O)cc1)C(N)=O)[C@@H](C)O)C(C)C)[C@@H](C)O` [Example 147, N-epsilon21-[2-(2-{2-[2-(2-{2-[(S)-4-Carboxy-4-(19-carboxyheptadecanoylamino)butyrylamino]ethoxy}ethoxy)acetylamino]ethoxy}ethoxy)acetyl]-[Glu14,Lys21,Ser28,Arg29,His35]-pramlintide] (H-KCNTATCATQRLAEFLVHSSK([AEEA-AEEA-γGlu-C20 diacid])NFGPILSRTNVGSHTY-NH2; disulfide 2-7), the solubility runs as follows: under setting [1], above 200 µM; under setting [2], above 200 µM; under setting [3], above 200 µM; under setting [4], above 200 µM; under setting [5], 1 µM (≈ 4.79 µg/mL); under setting [6], 1 µM (≈ 4.79 µg/mL). The solubility is, setting by setting: under setting [7], 1 µM (≈ 4.79 µg/mL); under setting [8], 1 µM (≈ 4.79 µg/mL).

As usually defined, the solubility is the dissolved amount per volume that the medium holds.
